Data on one compound can be found in paper PMC12374823, “A Small Molecule Selectively Targets N-Myc to Suppress Neuroblastoma Cancer Progression” (International Journal of Biological Sciences, 2025).

One experiment deals with T1, N-Myc (Homo sapiens, UniProt P04198).
T1 construct: gene MYCN; N-Myc^1-464
T1 sequence (P04198 1-464): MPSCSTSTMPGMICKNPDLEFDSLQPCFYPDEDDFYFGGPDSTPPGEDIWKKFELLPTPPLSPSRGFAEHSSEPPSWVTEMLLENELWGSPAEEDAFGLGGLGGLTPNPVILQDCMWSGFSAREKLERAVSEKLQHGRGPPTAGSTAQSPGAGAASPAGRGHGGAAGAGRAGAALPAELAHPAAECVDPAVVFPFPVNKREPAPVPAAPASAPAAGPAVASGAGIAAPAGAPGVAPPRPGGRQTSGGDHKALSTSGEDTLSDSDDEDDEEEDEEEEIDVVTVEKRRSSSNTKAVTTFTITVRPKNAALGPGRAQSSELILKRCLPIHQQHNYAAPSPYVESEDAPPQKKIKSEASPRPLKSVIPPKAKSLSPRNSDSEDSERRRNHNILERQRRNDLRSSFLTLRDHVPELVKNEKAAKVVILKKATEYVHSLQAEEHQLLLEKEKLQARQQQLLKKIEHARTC
As to the kind of experiment: microscale thermophoresis (MST) with labeled purified N-Myc; supported by CETSA in cells. It counts as binding.

The next experiment deals with T2, c-Myc (Homo sapiens, UniProt P01106).
T2 construct: c-Myc^1-439
As to the kind of experiment: microscale thermophoresis (MST) with labeled recombinant c-Myc. It counts as binding. For orientation: In MST a laser heats a spot of the sample, and binding alters the fluorescence response.

T2 sequence (P01106 16-454): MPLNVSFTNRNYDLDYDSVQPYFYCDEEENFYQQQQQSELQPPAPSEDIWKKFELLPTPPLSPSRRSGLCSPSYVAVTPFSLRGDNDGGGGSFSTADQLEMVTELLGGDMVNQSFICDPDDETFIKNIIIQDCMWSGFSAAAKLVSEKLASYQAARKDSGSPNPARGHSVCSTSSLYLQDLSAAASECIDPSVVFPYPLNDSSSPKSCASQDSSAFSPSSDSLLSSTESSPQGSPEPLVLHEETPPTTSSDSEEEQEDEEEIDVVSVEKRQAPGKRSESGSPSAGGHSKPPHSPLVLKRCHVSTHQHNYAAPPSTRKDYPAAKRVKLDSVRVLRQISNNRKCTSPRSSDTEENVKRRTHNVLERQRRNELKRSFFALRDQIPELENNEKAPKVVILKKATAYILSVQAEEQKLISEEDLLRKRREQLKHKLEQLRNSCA

Regarding `COc1ccc(-n2nc3ccc(NC(=O)CBr)cc3n2)cc1` [N78], the values for the Kd at N-Myc and on c-Myc were 1.47 ± 0.52 µM and 8.48 ± 2.61 µM, respectively.
